The values that follow come from patent publication US20090131430A1, “PYRIDO'2,3-DIPYRIMIDINES AS ANTI-INFLAMMATORY AGENTS” (priority 2004, published 2009).

The first data set concerns TNF-α release from peripheral blood mononuclear cells. The data set is described as follows: Cell based assay for TNF-α release, LPS stimulation of human PBMNC's (ELISA). Particulars: PBMC, LPS 20 ng/ml, overnight, span over the group, units given in the value. Here is the method: Human whole blood was collected in vacutainer tubes containing EDTA as an anti coagulant. A blood sample (7 ml) was carefully layered over 5 ml PMN Cell Isolation Medium (Robbins Scientific) in a 15 ml round bottom centrifuge tubes. The sample was centrifuged at 450-500×g for 30-35 minutes in a swing-out rotor at room temperature. After centrifugation the top band of cells were removed and washed 3 times with PBS w/o calcium or magnesium. The cells were centrifuged at 400×g for 10 minutes at room temperature. The cells were resuspended in Macrophage Serum Free Medium (Gibco BRL) at concentration of 2 million cells/ml.
PBM cells (0.1 ml; 2 million/ml) were co-incubated with 0.1 ml of compound (10-0.41 μM, final concentration) for 1 hour in flat bottom 96 well microtiter plate. Compounds were dissolved in DMSO initially and diluted in TCM for a final concentration of 0.1% DMSO. LPS (Cal biochem, 20 ng/ml, final concentration) was then added at volume of 0.010 ml. Cultures were incubated overnight at 37° C.). Supernatant were then removed and tested by ELISA for TNF-α release. Viability was analyzed using MTT. After 0.1 ml supernatant was collected, 0.1 ml of 0.25 mg/ml of MTT was added to remaining 0.1 ml of cells. The cells were incubated at 37° C. for 2-4 hours, then the O.D was measured at 490-650 nm n.
The TNF-α levels released in the culture medium were quantitated by ELISA. Inhibitory potency was expressed as IC50.
`Cn1c(=O)c(-c2ccccc2Cl)cc2cnc(NC3C4CN(C(=O)Nc5ccc(F)cc5)CC43)nc21` (stereo not drawn) [Compound No. 2, 6-[6-(2-Chlorophenyl)-8-methyl-7-oxo-7,8-dihydro-pyrido[2,3-d]pyrimidin-2-ylamino]-3-aza-bicyclo[3.1.0]hexane-3-carboxylic acid-(4-fluorophenyl)-amide] showed an IC50 of 0.012 to 2.3 µM. On the same count and under the same terms, then `Cn1c(=O)c(-c2ccccc2Cl)cc2cnc(NC3C4CN(S(C)(=O)=O)CC43)nc21` (stereo not drawn) [Compound No. 4, 6-(2-Chlorophenyl)-2-(3-methanesulphonyl-3-aza-bicyclo[3.1.0]hex-6-ylamino)-8-methyl-8H-pyrido[2,3-d]pyrimidin-7-one], with 0.012 to 2.3 µM; and `Cn1c(=O)c(-c2ccccc2Cl)cc2cnc(NC3C4CN(C(=O)OCc5ccccc5)CC43)nc21` (stereo not drawn) [Compound No. 6, 6-[6-(2-Chlorophenyl)-8-methyl-7-oxo-7,8-dihydro-pyrido[2,3-d]pyrimidin-2-ylamino]-3-aza-bicyclo[3.1.0]hexane-3-carboxylic acid benzyl ester], with 0.012 to 2.3 µM. The same measure, in the same setting: as for `O=C(OCc1ccccc1)N1CC2C(C1)C2Nc1ncc2cc(-c3ccccc3Cl)c(=O)n(-c3ccc(F)cc3)c2n1` (stereo not drawn) [Compound No. 12, 6-[6-(2-Chlorophenyl)-8-(4-fluorophenyl)-7-oxo-7,8-dihydro-pyrido[2,3-d]pyrimidin-2-ylamino]-3-aza-bicyclo[3.1.0]hexane-3-carboxylic acid benzyl ester], the figure is 0.012 to 2.3 µM. In the case of `O=c1c(-c2ccccc2Cl)cc2cnc(NCC3C4CN(Cc5ccccc5)CC34)nc2n1-c1ccc(F)cc1` (stereo not drawn) [Compound No. 16, 2-[(3-Benzyl-3-aza-bicyclo[3.1.0]hex-6-ylmethyl)-amino]-6-(2-chlorophenyl)-8-(4-fluorophenyl)-8H-pyrido[2,3-d]pyrimidin-7-one], the 50% inhibitory concentration (IC50) was in the range of 0.012 to 2.3 µM. In turn, `O=c1c(-c2ccccc2Cl)cc2cnc(NC3C4CN(Cc5ccccc5)CC43)nc2n1C1CC1` (stereo not drawn) [Compound No. 17, 2-(3-Benzyl-3-aza-bicyclo[3.1.0]hex-6-ylamino)-6-(2-chlorophenyl)-8-cyclopropyl-8H-pyrido[2,3-d]pyrimidin-7-one] came in with an IC50 of 0.012 to 2.3 µM. The molecule `O=C(OCc1ccccc1)N1CC2C(C1)C2Nc1ncc2cc(-c3ccccc3Cl)c(=O)n(C3CC3)c2n1` (stereo not drawn) [Compound No. 18, 6-[6-(2-Chlorophenyl)-8-cyclopropyl-7-oxo-7,8-dihydro-pyrido[2,3-d]pyrimidin-2-ylamino]-3-aza-bicyclo[3.1.0]hexane-3-carboxylic acid benzyl ester] returned an IC50 of 0.012 to 2.3 µM. For the molecule `O=c1c(-c2ccccc2Cl)cc2cnc(NC3C4CNCC43)nc2n1C1CC1` (stereo not drawn) [Compound No. 19, 2-(3-Aza-bicyclo[3.1.0]hex-6-ylamino)-6-(2-chlorophenyl)-8-cyclopropyl-8H-pyrido[2,3-d]pyrimidin-7-one], the IC50 was 0.012 to 2.3 µM. On the same count and under the same terms, then `CN1CC2C(C1)C2Nc1ncc2cc(-c3ccccc3Cl)c(=O)n(C3CC3)c2n1` (stereo not drawn) [Compound No. 20, 6-(2-Chlorophenyl)-8-cyclopropyl-2-(3-methyl-3-aza-bicyclo[3.1.0]hex-6-ylamino)-8H-pyrido[2,3-d]pyrimidin-7-one], with 0.012 to 2.3 µM; and `CC(=O)N1CC2C(C1)C2Nc1ncc2cc(-c3ccccc3Cl)c(=O)n(C3CC3)c2n1` (stereo not drawn) [Compound No. 23, 2-(3-Acetyl-3-aza-bicyclo[3.1.0]hex-6-ylamino)-6-(2-chlorophenyl)-8-cyclopropyl-8H-pyrido[2,3-d]pyrimidin-7-one], with 0.012 to 2.3 µM; and `CC(C)(C)CC(C)(C)NC(=O)N1CC2C(C1)C2Nc1ncc2cc(-c3ccccc3Cl)c(=O)n(C3CC3)c2n1` (stereo not drawn) [Compound No. 24], with 0.012 to 2.3 µM.

In turn, `O=C(Nc1ccc(F)cc1)N1CC2C(C1)C2Nc1ncc2cc(-c3ccccc3Cl)c(=O)n(C3CC3)c2n1` (stereo not drawn) [Compound No. 26, 6-[6-(2-Chlorophenyl)-8-cyclopropyl-7-oxo-7,8-dihydro-pyrido[2,3-d]pyrimidin-2-ylamino]-3-aza-bicyclo[3.1.0]hexane-3-carboxylic acid-(4-fluorophenyl)-amide] showed an IC50 of 0.012 to 2.3 µM. For `O=c1[nH]c2nc(NC3C4CN(Cc5ccccc5)CC43)ncc2cc1-c1ccccc1Cl` (stereo not drawn) [Compound No. 27, 2-(3-Benzyl-3-aza-bicyclo[3.1.0]hex-6-ylamino)-6-(2-chlorophenyl)-8H-pyrido[2,3-d]pyrimidin-7-one], the IC50 fell in the range of 0.012 to 2.3 µM.

As to `O=c1c(-c2ccccc2Cl)cc2cnc(NC3C4COCC3CN(Cc3ccccc3)C4)nc2n1C1CC1` (stereo not drawn) [Compound No. 33, 2-(7-Benzyl-3-oxa-7-aza-bicyclo[3.3.1]non-9-ylamino)-6-(2-chlorophenyl)-8-cyclopropyl-8H-pyrido[2,3-d]pyrimidin-7-one], the IC50 is 0.012 to 2.3 µM.

`N#CCn1c(=O)c(-c2ccccc2Cl)cc2cnc(NC3C4CN(Cc5ccccc5)CC43)nc21` (stereo not drawn) [Compound No. 56, [2-(3-Benzyl-3-aza-bicycyclo[3.1.0]hex-6-ylamino)-6-(2-chlorophenyl)-7-oxo-7H-pyrido[2,3-d]pyrimidin-8-yl]-acetonitrile] yielded a half-maximal inhibitory concentration (IC50) of 0.012 to 2.3 µM. Same read-out and setting: then `N#CCn1c(=O)c(-c2ccccc2Cl)cc2cnc(NC3C4CN(C(=O)Nc5ccc(F)cc5)CC43)nc21` (stereo not drawn) [Compound No. 57, 6-[6-(2-Chlorophenyl)-8-cyanomethyl-7-oxo-7,8-dihydro-pyrido[2,3-d]pyrimidin-2-ylamino]-3-aza-bicyclo[3.1.0]hexane-3-carboxylic acid (4-fluorophenyl)-amide], with 0.012 to 2.3 µM; and `O=c1[nH]c2nc(NC3C4CNCC43)ncc2cc1-c1ccccc1Cl` (stereo not drawn) [Compound No. 58, 2-(3-Aza-bicyclo[3.1.0]hex-6-ylamino)-6-(2-chlorophenyl)-8H-pyrido[2,3-d]pyrimidin-7-one], with 0.012 to 2.3 µM. On the same count and under the same terms, as for `NC(=O)N1CC2C(C1)C2Nc1ncc2cc(-c3ccccc3Cl)c(=O)n(C3CC3)c2n1` (stereo not drawn) [Compound No. 63, 6-[6-(2-Chlorophenyl)-8-cyclopropyl-7-oxo-7,8-dihydro-pyrido[2,3-d]pyrimidin-2-ylamino]-3-aza-bicyclo[3.1.0]hexane-3-carboxylic acid amide], the figure is 0.012 to 2.3 µM.

Tested on in a further data set: not given
Assay: not given
Conditions: not given
As for `Cn1c(=O)c(-c2ccccc2Cl)cc2cnc(NC3CC4CCCC(C3)N4Cc3ccccc3)nc21` (stereo not drawn), the melting point is 76.9 to 82 °C. `Cn1c(=O)c(-c2ccccc2Cl)cc2cnc(NC3CC4CCC(C3)N4Cc3ccccc3)nc21` (stereo not drawn) registered a melting point of 147.4 to 153.8 °C. Turning to `O=c1c(-c2ccccc2Cl)cc2cnc(NC3C4COCC3CN(Cc3ccccc3)C4)nc2n1-c1ccc(F)cc1` (stereo not drawn) [Compound No. 52, 2-(7-Benzyl-3-oxa-7-aza-bicyclo[3.3.1]non-9-ylamino)-6-(2-chlorophenyl)-8-(4-fluorophenyl)-8H-pyrido[2,3-d]pyrimidin-7-one], the melting point is 107.4 to 110.4 °C.

Tested on in a further data set: not listed separately
The experiment in a line: Precipitate formation in the DMSO solvent used. In kind it is physicochemical. Conditions: DMSO solvent used in testing.
As to `Cc1ccc(S(=O)(=O)N2CC3C(C2)C3Nc2ncc3cc(-c4ccccc4Cl)c(=O)n(C4CC4)c3n2)cc1` (stereo not drawn) [Compound No. 21, 6-(2-Chlorophenyl)-8-cyclopropyl-2-[3-(toluene-4-sulphonyl)-3-aza-bicyclo[3.1.0]hex-6-ylamino]-8H-pyrido[2,3-d]pyrimidin-7-one], the “formed a precipitate in the DMSO solvent used” value (from here on “formed a precipitate”) is “formed a precipitate in the DMSO solvent used”.

On to `CC(C)(C)CC(C)(C)NC(=O)N1CC2C(C1)C2Nc1ncc2cc(-c3ccccc3Cl)c(=O)n(C3CC3)c2n1` (stereo not drawn) [Compound No. 24], for which the “formed a precipitate” value was “formed a precipitate in the DMSO solvent used”. Take `O=c1c(-c2ccccc2Cl)cc2cnc(NC3C4CN(S(=O)(=O)c5ccc(C(F)(F)F)cc5)CC43)nc2n1C1CC1` (stereo not drawn) [Compound No. 37, 6-(2-Chlorophenyl)-8-cyclopropyl-2-[3-(4-trifluoromethylbenzenesulfonyl)-3-aza-bicyclo[3.1.0]hex-6-ylamino]-8H-pyrido[2,3-d]pyrimidin-7-one]: the “formed a precipitate” value is reported as “formed a precipitate in the DMSO solvent used”. Consider `Cn1c(=O)c(-c2ccccc2Cl)cc2cnc(NC3C4CN(S(=O)(=O)c5ccccc5)CC43)nc21` (stereo not drawn) [Compound No. 41, 2-(3-Benzenesulphonyl-3-aza-bicyclo[3.1.0]hex-6-ylamino)-6-(2-chlorophenyl)-8-methyl-8H-pyrido[2,3-d]pyrimidin-7-one], for which the “formed a precipitate” value was “formed a precipitate in the DMSO solvent used”. In the case of `Cc1ccc(S(=O)(=O)N2CC3C(C2)C3Nc2ncc3cc(-c4ccccc4Cl)c(=O)n(C)c3n2)cc1` (stereo not drawn) [Compound No. 43, 6-(2-Chlorophenyl)-8-methyl-2-[3-(toluene-4-sulfonyl)-3-aza-bicyclo[3.1.0]hex-6-ylamino]-8H-pyrido[2,3-d]pyrimidin-7-one], the “formed a precipitate” value is “formed a precipitate in the DMSO solvent used”.

In the case of `O=c1[nH]c2nc(NC3C4COCC3CN(Cc3ccccc3)C4)ncc2cc1-c1ccccc1Cl` (stereo not drawn) [Compound No. 61, 2-(7-Benzyl-3-oxa-7-aza-bicyclo[3.3.1]non-9-ylamino)-6-(2-chlorophenyl)-8H-pyrido[2,3-d]pyrimidin-7-one], the “formed a precipitate” value was “formed a precipitate in the DMSO solvent used”.
